pIC50: −log10 of the molar value.
What follows are compounds tested against recombinant human SYK (GST-hSYK fusion protein) (Homo sapiens, UniProt P43405) (assay: biochemical). Conditions: rhSYK Activity (IC50), recombinant human GST-SYK 5 pM, ATP 25 μM, biotinylated substrate peptide 250 nM, HTRF, 10-dose titration.
Text: Homogeneous Time-Resolved Fluorescence (HTRF) Assay for the Recombinant Human SYK Enzyme:

pIC50	SMILES
> 7.00	Cc1cc(Nc2nccc(C(F)(F)F)n2)cc(-c2cnc(CNCCOCCO)s2)c1 [Example 88A-42]
> 7.00	Cc1cc(Nc2nccc(C(F)(F)F)n2)cc(-c2cnc(CNC(C)(C)CC(C)O)s2)c1 (stereo not drawn) [Example 88A-45]
> 7.00	Cc1cc(Nc2nccc(C(F)(F)F)n2)cc(-c2cnc(CNCC3(CO)COC3)s2)c1 [Example 88A-46]
> 7.00	Cc1cc(Nc2nccc(C(F)(F)F)n2)cc(-c2cnc(CNC(CO)(CO)CO)s2)c1 [Example 88A-47]
> 7.00	Cc1cc(Nc2nccc(C(F)(F)F)n2)cc(-c2cnc(CNCC3(CO)CCOCC3)s2)c1 [Example 88A-49]
> 7.00	Cc1cc(Nc2nccc(C(F)(F)F)n2)cc(-c2cnc(CNCCCN(CCO)CCO)s2)c1 [Example 88A-51]
> 7.00	Cc1cc(Nc2nccc(C(F)(F)F)n2)cc(-c2cnc(CN(CCO)CCS(=O)(=O)O)s2)c1 [Example 88A-52]
> 7.00	Cc1cc(Nc2nccc(C(F)(F)F)n2)cc(-c2cnc(CN(C)C3COCC3O)s2)c1 (stereo not drawn) [Example 88A-54]
> 7.00	Cc1cc(Nc2nccc(C(F)(F)F)n2)cc(-c2cnc(CNC3(C)CCCCC3CO)s2)c1 (stereo not drawn) [Example 88A-55]
> 7.00	Cc1cc(Nc2nccc(C(F)(F)F)n2)cc(-c2cnc(CNC3CS(=O)(=O)CC3O)s2)c1 (stereo not drawn) [Example 88A-57]
> 7.00	CCN(Cc1ncc(-c2cc(C)cc(Nc3nccc(C(F)(F)F)n3)c2)s1)C1CS(=O)(=O)CC1O (stereo not drawn) [Example 88A-58]
> 7.00	CNC(=O)NCc1ncc(-c2cc(C)cc(Nc3nccc(C(F)(F)F)n3)c2)s1 [Example 88A-61]
> 7.00	CCNC(=O)NCc1ncc(-c2cc(C)cc(Nc3nccc(C(F)(F)F)n3)c2)s1 [Example 88A-62]
> 7.00	Cc1cc(Nc2nccc(C(F)(F)F)n2)cc(-c2cnc(CNC(=O)NC(C)C)s2)c1 [Example 88A-63]
> 7.00	CCOC(=O)C(C)NC(=O)NCc1ncc(-c2cc(C)cc(Nc3nccc(C(F)(F)F)n3)c2)s1 (stereo not drawn) [Example 88A-64]
> 7.00	Cc1cc(Nc2nccc(C(F)(F)F)n2)cc(-c2cnc(CN3CCCC(C)(O)C3)s2)c1 (stereo not drawn) [Example 88B-1]
> 7.00	Cc1cc(Nc2nccc(C(F)(F)F)n2)cc(-c2cnc(CN3CCC(C)(O)C3)s2)c1 (stereo not drawn) [Example 88B-2]
> 7.00	Cc1cc(Nc2nccc(C(F)(F)F)n2)cc(-c2cnc(CN3CC[S+]([O-])CC3)s2)c1 [Example 88B-3]
> 7.00	Cc1cc(Nc2nccc(C(F)(F)F)n2)cc(-c2cnc(CN3CCC[S+]([O-])CC3)s2)c1 (stereo not drawn) [Example 88B-4]
> 7.00	Cc1cc(Nc2nccc(C(F)(F)F)n2)cc(-c2cnc(CN3CCC(C)(O)CC3)s2)c1 [Example 88B-5]
> 7.00	CC(=O)N1CCN(Cc2ncc(-c3cc(C)cc(Nc4nccc(C(F)(F)F)n4)c3)s2)CC1 [Example 88B-6]
> 7.00	Cc1cc(Nc2nccc(C(F)(F)F)n2)cc(-c2cnc(CN3CCNC(=O)CC3)s2)c1 [Example 88B-7]

pIC50	SMILES
> 7.00	Cc1cc(Nc2nccc(C(F)(F)F)n2)cc(-c2cnc(CN3CCCNC(=O)C3)s2)c1 [Example 88B-8]
> 7.00	Cc1cc(Nc2nccc(C(F)(F)F)n2)cc(-c2cnc(CN3CCN(S(C)(=O)=O)CC3)s2)c1 [Example 88B-9]
> 7.00	Cc1cc(Nc2nccc(C(F)(F)F)n2)cc(-c2cnc(CN3CCCC(C(N)=O)C3)s2)c1 (stereo not drawn) [Example 88B-10]
> 7.00	Cc1cc(Nc2nccc(C(F)(F)F)n2)cc(-c2cnc(CN3CCOC(CCO)C3)s2)c1 (stereo not drawn) [Example 88B-11]
> 7.00	COCC1CN(Cc2ncc(-c3cc(C)cc(Nc4nccc(C(F)(F)F)n4)c3)s2)CCO1 (stereo not drawn) [Example 88B-13]
> 7.00	Cc1cc(Nc2nccc(C(F)(F)F)n2)cc(-c2cnc(CN3CCOC(CC(=O)O)C3)s2)c1 (stereo not drawn) [Example 88B-14]
> 7.00	Cc1cc(Nc2nccc(C(F)(F)F)n2)cc(-c2cnc(CN3CCC(P(=O)(O)O)C3)s2)c1 (stereo not drawn) [Example 88B-15]
> 7.00	Cc1cc(Nc2nccc(C(F)(F)F)n2)cc(-c2cnc(CN3CC(COP(C)(C)=O)C3)s2)c1 [Example 88B-16]
> 7.00	Cc1cc(Nc2nccc(C(F)(F)F)n2)cc(-c2cnc(CN3CCP(=O)(C(C)C)CC3)s2)c1 [Example 88B-17]
> 7.00	Cc1cc(Nc2nccc(C(F)(F)F)n2)cc(-c2cnc(CO)s2)c1 [Example 89, [5-(3-methyl-5-{[4-(trifluoromethyl)pyrimidin-2-yl]amino}phenyl)-1,3-thiazol-2-yl]methanol]
> 7.00	Cc1cc(Nc2nccc(C(F)(F)F)n2)cc(-c2cnc(CBr)s2)c1 [Example 90, N-{3-[2-(bromomethyl)-1,3-thiazol-5-yl]-5-methylphenyl}-4-(trifluoromethyl)pyrimidin-2-amine]
> 7.00	CCOC(=O)C1(Cc2ncc(-c3cc(C)cc(Nc4nccc(C(F)(F)F)n4)c3)s2)CCNC1=O (stereo not drawn) [Example 91, Ethyl 3-{[5-(3-methyl-5-{[4-(trifluoromethyl)pyrimidin-2-yl]amino}phenyl)-1,3-thiazol-2-yl]-methyl}-2-oxopyrrolidine-3-carboxylate]
> 7.00	Cc1cc(Nc2nccc(C(F)(F)F)n2)cc(-c2cnc(CC3(C(=O)O)CCNC3=O)s2)c1 (stereo not drawn) [Example 92, 3-{[5-(3-methyl-5-{[4-(trifluoromethyl)pyrimidin-2-yl]amino}phenyl)-1,3-thiazol-2-yl]methyl}-2-oxopyrrolidine-3-carboxylic acid]
> 7.00	Cc1cc(Nc2nccc(C(F)(F)F)n2)cc(-c2cnc(CN3CCOC3=O)s2)c1 [Example 92-1]
> 7.00	Cc1cc(Nc2nccc(C(F)(F)F)n2)cc(-c2cnc(CN3CCCC3=O)s2)c1 [Example 92-2]
> 7.00	Cc1cc(Nc2nccc(C(F)(F)F)n2)cc(-c2cnc(CN3CCN(C)C3=O)s2)c1 [Example 92-3]
> 7.00	Cc1cc(Nc2nccc(OC3CNC3)n2)cc(-c2cnc(C3(O)CCC3)s2)c1 [Example 93, 1-[5-(3-{[4-(azetidin-3-yloxy)pyrimidin-2-yl]amino}-5-methylphenyl)-1,3-thiazol-2-yl]cyclobutanol]
> 7.00	Cc1cc(Nc2nccc(OC3COC3)n2)cc(-c2cnc(C3(O)CCC3)s2)c1 [Example 94, 1-[5-(3-methyl-5-{[4-(oxetan-3-yloxy)pyrimidin-2-yl]amino}phenyl)-1,3-thiazol-2-yl]cyclobutanol]
> 7.00	Cc1cc(Nc2nccc(OCc3ccncc3)n2)cc(-c2cnc(C3(O)CCC3)s2)c1 [Example 94A-1]
> 7.00	Cc1cc(Nc2nccc(OCc3cccnc3)n2)cc(-c2cnc(C3(O)CCC3)s2)c1 [Example 94A-2]
> 7.00	Cc1cc(Nc2nccc(OCc3ccccn3)n2)cc(-c2cnc(C3(O)CCC3)s2)c1 [Example 94A-3]
> 7.00	Cc1cc(Nc2nccc(OCC3COCCO3)n2)cc(-c2cnc(C3(O)CCC3)s2)c1 (stereo not drawn) [Example 94A-4]

pIC50	SMILES
> 7.00	Cc1cc(Nc2nccc(OCCC3CCOCC3)n2)cc(-c2cnc(C3(O)CCC3)s2)c1 [Example 94A-5]
6.00 to 7.00	Cc1cc(Nc2ncc(F)c(OC3CCOC3)n2)cc(-c2cnc(C3(O)CCC3)s2)c1 (stereo not drawn) [Example 94A-6]
> 7.00	Cc1cc(Nc2nccc(OCC3CCOCC3)n2)cc(-c2cnc(C3(O)CCC3)s2)c1 [Example 94A-7]
> 7.00	Cc1cc(Nc2nccc(O[C@@H]3CCOC3)n2)cc(-c2cnc(C3(O)CCC3)s2)c1 [Example 94A-8]
6.00 to 7.00	Cc1cc(Nc2nccc(OCCOCc3ccccc3)n2)cc(-c2cnc(C3(O)CCC3)s2)c1 [Example 94A-9]
> 7.00	Cc1cc(Nc2nccc(O[C@H]3CCOC3)n2)cc(-c2cnc(C3(O)CCC3)s2)c1 [Example 94A-10]
6.00 to 7.00	Cc1cc(Nc2nccc(OCCCCOCc3ccccc3)n2)cc(-c2cnc(C3(O)CCC3)s2)c1 [Example 94A-11]
> 7.00	COCCCOc1ccnc(Nc2cc(C)cc(-c3cnc(C4(O)CCC4)s3)c2)n1 [Example 94A-12]
6.00 to 7.00	Cc1cc(Nc2nccc(OCCCOCc3ccccc3)n2)cc(-c2cnc(C3(O)CCC3)s2)c1 [Example 94A-13]
> 7.00	COCCOc1ccnc(Nc2cc(C)cc(-c3cnc(C4(O)CCC4)s3)c2)n1 [Example 94A-14]
> 7.00	Cc1cc(Nc2nccc(OCC3CCOC3)n2)cc(-c2cnc(C3(O)CCC3)s2)c1 (stereo not drawn) [Example 94A-15]
6.00 to 7.00	CCOC(=O)C1CCC(Oc2ccnc(Nc3cc(C)cc(-c4cnc(C5(O)CCC5)s4)c3)n2)CC1 (stereo not drawn) [Example 94A-16, ethyl 4-{[2-({3-[2-(1-hydroxycyclobutyl)-1,3-thiazol-5-yl]-5-methylphenyl}-amino)pyrimidin-4-yl]oxy}cyclohexanecarboxylate]
> 7.00	Cc1cc(Nc2nccc(OC3CCOCC3)n2)cc(-c2cnc(C3(O)CCC3)s2)c1 [Example 94A-17]
> 7.00	Cc1cc(Nc2nccc(OC3CCC(N)CC3)n2)cc(-c2cnc(C3(O)CCC3)s2)c1 (stereo not drawn) [Example 94A-18]
> 7.00	Cc1cc(Nc2nccc(OC3CCNC(C)CC3)n2)cc(-c2cnc(C3(O)CCC3)s2)c1 (stereo not drawn) [Example 94A-20]
> 7.00	Cc1cc(Nc2nccc(OC3CCCNCC3)n2)cc(-c2cnc(C3(O)CCC3)s2)c1 (stereo not drawn) [Example 94A-21]
6.00 to 7.00	Cc1cc(Nc2nccc(O[C@H](C)C(=O)O)n2)cc(-c2cnc(C3(O)CCC3)s2)c1 [Example 94A-22]
6.00 to 7.00	CNCCOc1ccnc(Nc2cc(C)cc(-c3cnc(C4(O)CCC4)s3)c2)n1 [Example 94A-23]
6.00 to 7.00	Cc1cc(Nc2nccc(OCC3CCNCC3)n2)cc(-c2cnc(C3(O)CCC3)s2)c1 [Example 94A-24]
6.00 to 7.00	Cc1cc(Nc2nccc(OC(C)(C)C(=O)OC(C)(C)C)n2)cc(-c2cnc(C3(O)CCC3)s2)c1 [Example 94A-25, tert-butyl 2-{[2-({3-[2-(1-hydroxycyclobutyl)-1,3-thiazol-5-yl]-5-methylphenyl}amino)-pyrimidin-4-yl]oxy}-2-methylpropanoate]
> 7.00	Cc1cc(Nc2nccc(OC3CCCNC3)n2)cc(-c2cnc(C3(O)CCC3)s2)c1 (stereo not drawn) [Example 94A-26]
> 7.00	Cc1cc(Nc2nccc(OCC3CNC3)n2)cc(-c2cnc(C3(O)CCC3)s2)c1 [Example 94A-27]

From patent US8551984B2, “Aminopyrimidines as SYK inhibitors” (Merck Sharp & Dohme Corp., priority 2009, dated 2013)
